# Literature values, collected in patent US20140328789A1, “pH-RESPONSIVE CELL SCAFFOLD AND METHOD OF USING SAME” (Research Foundation of the City University of New York, priority 2013, published 2014).
# Conditions: for pKa1 Monomer: first pKa; for pKa2 Monomer: second pKa; for pKa3 Monomer: third pKa; for pKa: cross-linking agent
molecule,measurement,value
"C=C(C)C(=O)OCCN [aminoethyl methacrylate (AEMA), aminoethyl methacrylate]",pKa Monomer,pKa = 8.8
NCCCC[C@H](N)C(=O)O [lysine],pKa1 Monomer,2.2
same,pKa2 Monomer,9.0
same,pKa3 Monomer,pKa3 = 10.5
"C=C(C)C(=O)OCCN(C)C [N,N-Dimethylaminoethyl Methacrylate]",pKa Monomer,pKa = 7.3-7.5
C=C(C)C(=O)OCCOP(=O)([O-])OCC[N+](C)(C)C [2-methacryloyloxyethyl phosphorylcholine],pKa1 Monomer,pKa1 = 1.9
C=C(C)C(=O)OC(=O)C(=C)C [Methacrylic anhydride],pKa,pKa = 4.65
C/C=C/C(=O)OC(=O)/C=C/C [Crotonic anhydride],pKa,pKa = 4.61
N[C@@H](CCC(=O)O)C(=O)O [glutamic acid],pKa1 Monomer,2.2
same,pKa2 Monomer,4.25
same,pKa3 Monomer,pKa3 = 9.67
"C=CC(=O)NC(C)C [N-isopropylacrylamide (NIPAM), N-isopropylacrylamide]",pKa Monomer,pKa ≈ 6
C=C(C)C(=O)OCCN(CC)CC [2-diethylaminoethyl methacrylate],pKa Monomer,pKa = 7.3
albumin,pKa Monomer,pKa = 7.4
C=C(C)C(=O)OC1CC(C)(C)N([O])C(C)(C)C1 [TEMPO methacrylate],pKa Monomer,pKa = 5.5
C=C(CC(=O)O)C(=O)O [itaconic acid],pKa Monomer,pKa = 4.5
